Measurements as given in patent publication EP2592085B1, “Thiazolo[3,2-a][1,3]diazepine derivatives and pharmaceutical compositions containing the same as anticonvulsant agents and method for their preparation” (King Saud University, priority 2011, dated 2013).

Assays:
Swiss albino mice [1] = assay: animal or person; type: in vivo; settings: for ED50: Mus musculus, ip, PTZ, median effective dose, log-probit method; for % Protection: PTZ 100 mg/kg i.p. given 30 min after compound i.p., dose SGH-35 200 mg/kg (0.78 mmol/kg), SGH-40 100 mg/kg (0.38 mmol/kg), 4 animals; for PI: male, Swiss albino, mouse, in vivo
Description: (§1) Adult male Swiss albino mice (22-28 g), approximately 10-week old, were used to conduct the anticonvulsant evaluation. They were housed in cages and kept at a temperature of 20 ± 2°C and a relative humidity of 55 ± 5% with a light-dark cycle of 12 h and fed with standard diet and water ad libitum. Compounds of the formula 1 have been dissolved in dimethylsulfoxide and administered at dose levels of 25, 50, 100 and 200 mgl/kg intraperitoneal (i.p.). Sodium valproate was freshly dissolved in 0.9 % NaCl and used at dose level of 200 mg/kg (1.38 mmol/kg) i.p., 30 min after the test compounds as a positive control. A control group of mice was included and received intraperitoneal (i.p.) injections of the test compounds' vehicle. […] Picrotoxin (pic) was freshly dissolved in 1 ml 0.1N warmed HCl and the final volume was made up with 0.9 % NaCl. It has been used at dose level of 10 mg/kg i.p. and was given 30 min after the test compounds.
(§2) The anticonvulsant activity of compounds of the formula 1 in mice was measured using Pentylenetetrazole (PTZ) seizure threshold test (White, H.S. et al. In Antiepileptic Drugs, 4th ed.; L,evy, R.H. et al., Eds, Raven: New York, 1995, pp 99-121). The active compounds of the formula 1 were further tested against maximal electroshock seizure (MES), and picrotoxin induced clonic convulsions, to explore the involvement of GABA-ergic receptors in their anticonvulsant activity. The effect of compounds of the formula 1 on motor performance was studied by chimney test (Dauge, V. et al. Neuropsychopharmacology 2001, 25, 690-98). Median effective (ED50), and median sedative (TD50) were calculated.
Pentylenetetrazole (PTZ) seizure threshold test is used to evaluate the potential anticonvulsant activity of compounds of the formula 1 (White, H.S. Et al. In Antiepileptic Drugs, 4th ed.; Levy, R.H. et al., Eds, Raven: New York, 1995, pp 99-121). Each compound was tested in 4 mice groups (Swiss albino mice, 25 g body weight) for each dose level (25, 50, 100 and 200 mg/kg) and was given i.p. 30 min later, animals were received PTZ (100 mg./kg, i.p.) and observed for 30 min. A single 5 seconds episode of clonic spasms was taken as a threshold seizure. SGH-35 and SGH-40 produced 100% protection against PTZ-induced seizures, Table 1. Table 1: ED50, TD50, PI, LD50 and TI for SGH-35 and SGH-40.
(§3) In each of the chemical and the electrical methods described above, Swiss albino mice were divided into 4 groups (N = 4 animals). Each group was injected (i.p.) with one of the four selected doses that have proven to obtain a variable percentage of protection […] before the convulsants. The effective dose 50 (ED50) i.e. the dose that protected half of the animals was then calculated using the log-probit method (White, H.S. et al. In Antiepileptic Drugs, 4th ed.; Levy, R.H.et al., Eds, Raven: New York, 1995, pp 99-121).

Swiss albino mice [2] = assay: Maximal electroshock (MES) seizure test; type: in vivo; settings: for % Protection: MES applied 30 min after compound i.p., dose SGH-35 200 mg/kg (0.78 mmol/kg), SGH-40 100 mg/kg (0.38 mmol/kg), 4 animals; for ED50: Mus musculus, ip, MES, median effective dose, log-probit method; for PI: Protective index = TD50/ED50, MES ED50
Description: as §2
The maximal electroshock (MES) seizure is one of the electrical test used to evaluate anticonvulsant activity (White, H.S. et al. In Antiepileptic Drugs, 4th ed.; Levy, R.H. et al., Eds, Raven New York, 1995, pp 99-121). […] Swiss albino mice (25 g body weight) were injected with 25, 50, 100 and 200 mg/kg of SGH-35 and SGH-40 i.p. 30 min later, mice were restrained by hand and subjected to electric shock through their ears, and released immediately following electrical stimulation, to permit observation of the maximal seizure. The maximal seizure typically consists of a short period of initial tonic flexioni and a prolonged period of tonic extension (especially the hind limb). Protection was defined as complete absence of hind limb tonic extension (Table 1).
as §3

Swiss albino mice [3] = assay: animal or person; type: in vivo; settings: for ED50: Mus musculus, ip; for % Protection: Picrotoxin (8 mg/kg, IP) given 30 min after compound i.p., dose SGH-35 200 mg/kg (0.78 mmol/kg), SGH-40 100 mg/kg (0.38 mmol/kg), 4 animals; for PI: Protective index = TD50/ED50, Pic ED50
Description: as §1, §2
Swiss albino mice (25 g body weight) were injected with 25, 50, 100 and 200 mg/kg of SGH-35 and SGH-40 (4 mice, i.p.). 30 min later, animals were injected sc with Pic (10 mg/kg) and observed for 30 min and the percentage protection against convulsive seizures for each compound was calculated (Table I).
as §3

[4] = Minimal neurotoxicity (chimney test), motor performance; type: in vivo, mice; settings: Swiss albino, mouse, in vivo, ip; median sedative dose; chimney test at 15 and 25 min after i.p. administration
Description: as §2
(§4) The effect of SGH-35 and SGH-40 on motor performance was studied by chimney test (Dauge, V. et al. Neuropsychopharmacology 2001, 25, 690-98). At 15 and 25 min after i.p. administration of compounds SGH-35 and SGH-40, the inability of mice to climb up backwards in a glass tube of 25 cm length and 3 cm inner diameter within 30 sec was recorded and taken as a measure of neurological deficits. Normal mice climb up in 5-10 sec. The dose that impaired the motor coordination in 50% of the animals tested was labeled as the median toxin dose 50 (TD50).

Swiss albino mice [5] = assay: as above; type: in vivo; settings: median sedative dose; chimney test at 15 and 25 min after i.p. administration
Description: as §2, §4

[6] = Acute toxicity determination (LD50); type: in vivo; settings: Albino Swiss, mouse, in vivo, ip, mice observed for 72 hours
Description: (§5) The acute toxicity determination (LD50) for compounds of formula 1 was performed. Compounds were given intraperitoneally (i.p.) in doses ranging from 0.1-5 mmol/kg. […] All behavioral changes and death during the observation periods were recorded. The percentage of death at each dose level was then calculated, and the LD50 values were obtained (Ghosh, M., Fundamentals of Experimental Pharmacology, Scientific Book Agency, Calcutta. 1984, pp 153-158, 187-189). The protective index (PI) and therapeutic index (TI) of each compound were calculated.
(§6) Initially the approximate LD100 of each test compound was determined. Albino Swiss mice (25 g body weight) were then divided into 4 groups (6 mice each). Each group was then injected with one of 4 selected doses the highest being the LD100 dose. The animals were then observed closely for 4 hours and then occasionally for 72 hours. The percentage of death in each group was then calculated. The LD50 doses were then calculated using the Profit method (Ghosh; M., Fundamentals of Experimental Pharmacology, Scientific Book Agency, Calcutta. 1984, pp 153-158, 187-189).
(§7) The protective index (PI) - i.e. the value that indicates the margin of safety and tolerance of the test compound was calculated by the formula: Protective index (PI) = TD50/ED50. The Therapeutic Index was calculated by the formula: Therepeutic index (TI) = LD50/ED50 (Löscher, W. et al. Epilepsy Res. 1991, 9, 1-10).

Albino Swiss mice = assay: Acute toxicity determination (LD50); type: in vivo; settings: Therapeutic index = LD50/ED50 (values match the PTZ ED50)
Description: as §5, §6, §7

Structure (SMILES)	ED50 (Swiss albino mice [1]) [mg/kg]	% Protection (Swiss albino mice [1]) [%]	PI (Swiss albino mice [1])	% Protection (Swiss albino mice [2]) [%]	ED50 (Swiss albino mice [2]) [mg/kg]	PI (Swiss albino mice [2])	ED50 (Swiss albino mice [3]) [mg/kg]	% Protection (Swiss albino mice [3]) [%]	PI (Swiss albino mice [3])	TD50 [4] [mg/kg]	TD50 (Swiss albino mice [5]) [mg/kg]	LD50 at 72 h [6] [mg/kg]	TI (Albino Swiss mice)
CC1=C(Br)SC2=NC(=O)CCCN21 [SGH-40, 2-Bromo-3-methyl-6,7-dihydro-thiazolo[3,2-a][1,3]diazepin-8(5H)-one]	112 ± 3.9	100	1.51	100	78 ± 4.1	2.17	129 ± 6.1	100	1.31	170 ± 6.9	170 ± 6.9	640	5.71
CCOC(=O)C1=C(C)N2CCCC(=O)N=C2S1 [SGH-35, Ethyl 3-methyl-8-oxo-5,6,7,8-tetrahydro-thiarolo[3,2-a][1,3]diazepinie-2-carboxylate]	127 ± 9.3	100	1.57	100	90 ± 5.7	2.22	148 ± 11.1	100	1.35	200 ± 12.3	200 ± 12.3	670	5.28
